Reference: patent US20160207928A1, “NOVEL COMPOUNDS FOR THE TREATMENT OF CANCER” (BAYER PHARMA AKTIENGESELLSCHAFT, priority 2013, published 2016)

Assays:
[1] = test system: HeLa human cervical tumor cells; assay: HeLa cell proliferation assay (crystal violet staining); type: cell-based; conditions: 96 h, 4 days incubation, read-out: Inhibition of cell proliferation, cell Line: HeLa IC50
Description: Cultivated tumor cells (MCF7, hormone dependent human mammary carcinoma cells, ATCC HTB22; NCI-H460, human non-small cell lung carcinoma cells, ATCC HTB-177; DU 145, hormone-independent human prostate carcinoma cells, ATCC HTB-81; HeLa-MaTu, human cervical carcinoma cells, EPO-GmbH, Berlin; HeLa-MaTu-ADR, multidrug-resistant human cervical carcinoma cells, EPO-GmbH, Berlin; HeLa human cervical tumor cells, ATCC CCL-2; B16F10 mouse melanoma cells, ATCC CRL-6475) were plated at a density of 5000 cells/well (MCF7, DU145, HeLa-MaTu-ADR), 3000 cells/well (NCI-H460, HeLa-MaTu, HeLa), or 1000 cells/well (B16F10) in a 96-well multititer plate in 200 μl of their respective growth medium supplemented 10% fetal calf serum. After 24 hours, the cells of one plate (zero-point plate) were stained with crystal violet (see below), while the medium of the other plates was replaced by fresh culture medium (200 μl), to which the test substances were added in various concentrations (0 μM, as well as in the range of 0.01-30 μM; the final concentration of the solvent dimethyl sulfoxide was 0.5%). The cells were incubated for 4 days in the presence of test substances. Cell proliferation was determined by staining the cells with crystal violet: the cells were fixed by adding 20 μl/measuring point of an 11% glutaric aldehyde solution for 15 minutes at room temperature. After three washing cycles of the fixed cells with water, the plates were dried at room temperature. The cells were stained by adding 100 μl/measuring point of a 0.1% crystal violet solution (pH 3.0). After three washing cycles of the stained cells with water, the plates were dried at room temperature. The dye was dissolved by adding 100 μl/measuring point of a 10% acetic acid solution. The extinction was determined by photometry at a wavelength of 595 nm. The change of cell number, in percent, was calculated by normalization of the measured values to the extinction values of the zero-point plate (=0%) and the extinction of the untreated (0 μm) cells (=100%). The IC50 values were determined by means of a 4 parameter fit using the company's own software.
The compounds of the present invention are characterized by the following IC50 values, determined in a HeLa cell proliferation assay (as described above): […]

[2] = target: T1, human kinase Mps-1 (Homo sapiens, UniProt P33981); assay: Mps-1 kinase assay (TR-FRET, 10 μM ATP); type: biochemical; conditions: N-terminally GST-tagged human full length recombinant Mps-1, read-out: Mps-1 Inhibition, IC50 (Assay with 10 μM ATP)
T1 construct: N-terminally GST-tagged human full length recombinant Mps-1 kinase; purchased Invitrogen, Karslruhe, Germany PV4071
T1 sequence (P33981 1-857): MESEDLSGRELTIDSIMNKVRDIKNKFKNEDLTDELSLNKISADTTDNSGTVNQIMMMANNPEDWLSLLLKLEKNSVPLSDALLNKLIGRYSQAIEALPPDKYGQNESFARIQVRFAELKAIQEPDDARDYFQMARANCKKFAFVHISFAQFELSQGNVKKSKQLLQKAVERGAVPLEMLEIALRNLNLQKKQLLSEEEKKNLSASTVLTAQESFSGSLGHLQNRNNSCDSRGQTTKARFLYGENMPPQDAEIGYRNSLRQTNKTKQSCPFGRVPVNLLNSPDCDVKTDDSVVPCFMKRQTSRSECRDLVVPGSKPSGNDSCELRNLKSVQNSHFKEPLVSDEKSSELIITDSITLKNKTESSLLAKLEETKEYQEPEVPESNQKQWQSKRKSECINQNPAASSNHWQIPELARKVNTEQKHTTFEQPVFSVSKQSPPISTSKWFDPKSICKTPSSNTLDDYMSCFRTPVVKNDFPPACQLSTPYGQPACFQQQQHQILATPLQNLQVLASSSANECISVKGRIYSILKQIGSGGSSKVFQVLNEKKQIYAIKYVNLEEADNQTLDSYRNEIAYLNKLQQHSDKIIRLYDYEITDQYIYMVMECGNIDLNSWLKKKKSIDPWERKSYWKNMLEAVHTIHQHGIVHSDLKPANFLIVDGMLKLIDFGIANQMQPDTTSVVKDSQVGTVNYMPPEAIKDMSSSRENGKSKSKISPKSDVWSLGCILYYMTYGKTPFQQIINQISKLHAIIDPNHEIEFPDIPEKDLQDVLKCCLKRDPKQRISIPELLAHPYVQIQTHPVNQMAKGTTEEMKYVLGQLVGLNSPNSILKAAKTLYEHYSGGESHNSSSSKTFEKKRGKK
Description: The human kinase Mps-1 phosphorylates a biotinylated substrate peptide. Detection of the phosphorylated product is achieved by time-resolved fluorescence resonance energy transfer (TR-FRET) from Europium-labelled anti-phospho-Serine/Threonine antibody as donor to streptavidin Labelled with cross-linked allophycocyanin (SA-XLent) as acceptor. Compounds are tested for their inhibition of the kinase activity.
N-terminally GST-tagged human full length recombinant Mps-1 kinase (purchased from Invitrogen, Karslruhe, Germany, cat. no PV4071) was used. As substrate for the kinase reaction a biotinylated peptide of the amino-acid sequence PWDPDDADITEILG (C-terminus in amide form, purchased from Biosynthan GmbH, Berlin) was used.
For the assay 50 nl of a 100-fold concentrated solution of the test compound in DMSO was pipetted into a black low volume 384 well microtiter plate (Greiner Bio-One, Frickenhausen, Germany), 2 μl of a solution of Mps-1 in assay buffer [0.1 mM sodium-ortho-vanadate, 10 mM MgCl2, 2 mM DTT, 25 mM Hepes pH 7.7, 0.05% BSA, 0.001% Pluronic F-127] were added and the mixture was incubated for 15 min at 22° C. to allow pre-binding of the test compounds to Mps-1 before the start of the kinase reaction. Then the kinase reaction was started by the addition of 3 μl of a solution of […] (ATP, 16.7 μM=>final conc. in the 5 μl assay volume is 10 μM) and peptide substrate (1.67 μM=>final conc. in the 5 μl assay volume is 1 μM) in assay buffer and the resulting mixture was incubated for a reaction time of 60 min at 22° C. The concentration of Mps-1 in the assay was adjusted to the activity of the enzyme lot and was chosen appropriate to have the assay in the linear range, typical enzyme concentrations were in the range of about 1 nM (final conc. in the 5 μl assay volume). The reaction was stopped by the addition of 3 μl of a solution of HTRF detection reagents (100 mM Hepes pH 7.4, 0.1% BSA, 40 mM EDTA, 140 nM Streptavidin-XLent [#61GSTXLB, Fa. Cis Biointernational, Marcoule, France], 1.5 nM anti-phospho(Ser/Thr)-Europium-antibody [#AD0180, PerkinElmer LAS, Rodgau-Jügesheim, Germany].
The resulting mixture was incubated 1 h at 22° C. to allow the binding of the phosphorylated peptide to the anti-phospho(Ser/Thr)-Europium-antibody. Subsequently the amount of phosphorylated substrate was evaluated by measurement of the resonance energy transfer from the Europium-labelled anti-phospho(Ser/Thr) antibody to the Streptavidin-XLent. Therefore, the fluorescence emissions at 620 nm and 665 nm after excitation at 350 nm was measured in a Viewlux TR-FRET reader (PerkinElmer LAS, Rodgau-Jügesheim, Germany). The “blank-corrected normalized ratio” (a Viewlux specific readout, similar to the traditional ratio of the emissions at 665 nm and at 622 nm, in which blank and Eu-donor crosstalk are subtracted from the 665 nm signal before the ratio is calculated) was taken as the measure for the amount of phosphorylated substrate. The data were normalised (enzyme reaction without inhibitor=0% inhibition, all other assay components but no enzyme=100% inhibition).

SMILES	IC50 [1]	IC50 [2]
COc1cc(C(=O)N2CC(F)C2)ccc1Nc1nc2cc(-c3ccc(NC(=O)[C@H](C)c4ccc(F)cc4)cc3)ccn2n1 [Example 5.2, (2R)—N-{4-[2-({4-[(3-fluoroazetidin-1-yl)carbonyl]-2-methoxyphenyl}amino)[1,2,4]triazolo[1,5-a]pyridin-7-yl]phenyl}-2-(4-fluorophenyl)propanamide]	24 nM	≤ 1 nM
COc1cc(C(=O)N2CCC2)ccc1Nc1nc2cc(-c3ccc(NC(=O)[C@H](C)c4ccc(F)cc4)cc3)ccn2n1 [Example 5.6, (2R)—N-[4-(2-{[4-(azetidin-1-ylcarbonyl)-2-methoxyphenyl]amino}[1,2,4]triazolo[1,5-a]pyridin-7-yl)phenyl]-2-(4-fluorophenyl)propanamide]	57 nM	≤ 1 nM
COc1cc(S(C)(=O)=O)ccc1Nc1cn2nc(-c3ccc(NC(=O)[C@H](C)c4ccc(F)cc4)cc3)ccc2n1 [Example 6.1, (2R)-2-(4-fluorophenyl)-N-[4-(2-{[2-methoxy-4-(methylsulfonyl)phenyl]amino}imidazo[1,2-b]pyridazin-6-yl)phenyl]propanamide]	501 nM	≤ 1 nM

More lines, now with the values ahead:

IC50 [1]	IC50 [2]	SMILES
118 nM	≤ 1 nM	COc1cc(S(C)(=O)=O)ccc1Nc1nc2cc(-c3ccc(NC(=O)[C@H](C)c4ccc(F)cc4)cc3)ccn2n1 [Example 5.1, (2R)-2-(4-fluorophenyl)-N-[4-(2-{[2-methoxy-4-(methylsulfonyl)phenyl]amino}[1,2,4]triazolo[1,5-a]pyridin-7-yl)phenyl]propanamide]
13 nM	≤ 1 nM	C[C@@H](C(=O)Nc1ccc(-c2ccn3nc(Nc4ccc(C(=O)N5CC(F)C5)cc4OCC(F)(F)F)nc3c2)cc1)c1ccc(F)cc1 [Example 5.3, (2R)—N-{4-[2-({4-[(3-fluoroazetidin-1-yl)carbonyl]-2-(2,2,2-trifluoroethoxy)phenyl}amino)[1,2,4]triazolo[1,5-a]pyridin-7-yl]phenyl}-2-(4-fluorophenyl)propanamide]
82 nM	≤ 1 nM	C[C@@H](C(=O)Nc1ccc(-c2ccn3nc(Nc4ccc(S(C)(=O)=O)cc4OCC(F)(F)F)nc3c2)cc1)c1ccc(F)cc1 [Example 5.5, (2R)-2-(4-fluorophenyl)-N-[4-(2-{[4-(methylsulfonyl)-2-(2,2,2-trifluoroethoxy)phenyl]amino}[1,2,4]triazolo[1,5-a]pyridin-7-yl)phenyl]propanamide]
